This assay has as its target T1, Human ASK1 (Homo sapiens, UniProt Q99683).
T1 construct: expressed in transfected cells; host or cells: HEK293T-AP1
T1 sequence (Q99683 1-1374): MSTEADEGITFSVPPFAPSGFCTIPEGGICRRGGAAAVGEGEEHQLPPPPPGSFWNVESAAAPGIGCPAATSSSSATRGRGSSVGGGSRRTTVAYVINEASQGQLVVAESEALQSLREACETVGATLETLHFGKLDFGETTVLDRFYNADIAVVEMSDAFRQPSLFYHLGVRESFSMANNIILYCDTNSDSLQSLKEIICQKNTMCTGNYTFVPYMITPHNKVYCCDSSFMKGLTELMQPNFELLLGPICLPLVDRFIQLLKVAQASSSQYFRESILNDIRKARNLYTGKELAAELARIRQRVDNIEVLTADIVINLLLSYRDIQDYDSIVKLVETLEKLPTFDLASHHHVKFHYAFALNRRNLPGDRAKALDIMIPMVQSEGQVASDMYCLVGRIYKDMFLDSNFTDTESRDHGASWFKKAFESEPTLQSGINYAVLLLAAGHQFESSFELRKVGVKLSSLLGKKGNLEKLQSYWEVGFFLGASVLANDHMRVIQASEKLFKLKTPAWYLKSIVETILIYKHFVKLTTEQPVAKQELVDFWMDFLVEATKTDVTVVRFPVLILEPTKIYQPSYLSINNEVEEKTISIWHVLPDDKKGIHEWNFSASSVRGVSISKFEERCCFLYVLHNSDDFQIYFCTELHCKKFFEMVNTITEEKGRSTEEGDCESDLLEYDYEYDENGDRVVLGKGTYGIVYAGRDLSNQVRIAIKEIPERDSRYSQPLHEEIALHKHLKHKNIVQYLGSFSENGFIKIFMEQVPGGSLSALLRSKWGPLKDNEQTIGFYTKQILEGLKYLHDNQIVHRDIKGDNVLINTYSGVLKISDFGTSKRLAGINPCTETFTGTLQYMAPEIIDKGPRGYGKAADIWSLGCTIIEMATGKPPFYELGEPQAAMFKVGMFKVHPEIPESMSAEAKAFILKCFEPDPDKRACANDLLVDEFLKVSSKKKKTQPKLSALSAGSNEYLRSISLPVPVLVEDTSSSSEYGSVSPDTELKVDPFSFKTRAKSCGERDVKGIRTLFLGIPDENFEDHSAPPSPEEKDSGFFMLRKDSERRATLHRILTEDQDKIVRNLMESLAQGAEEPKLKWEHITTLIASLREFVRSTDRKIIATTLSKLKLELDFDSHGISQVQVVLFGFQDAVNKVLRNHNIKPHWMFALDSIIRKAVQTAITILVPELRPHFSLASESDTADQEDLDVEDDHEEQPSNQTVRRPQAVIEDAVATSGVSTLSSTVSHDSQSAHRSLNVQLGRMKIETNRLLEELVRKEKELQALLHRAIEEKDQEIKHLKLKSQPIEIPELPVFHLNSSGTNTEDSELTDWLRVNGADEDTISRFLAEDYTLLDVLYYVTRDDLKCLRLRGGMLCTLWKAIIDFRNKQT
Put plainly: ASK1 Cell Based Assay (phospho p38 read out in hASK1 transfected HEK293T-AP1 cells). The procedure, abridged:
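HEK293T-AP1 cells transfected with hASK1, after 24 h treated with compounds for 24 h (0.2% DMSO), then stimulated with 1 mM H2O2 for 1 h with compounds present.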

Where [1] appears, read: HEK293T-AP1 cells, 1 mM hydrogen peroxide, phospho p38, read-out: Cell Based Assay IC50.
Where [2] appears, read: comparison with Selonsertib, read-out: ASK1 ph. P38 Cell based Assay (IC50).

Four compounds from patent publication US20220332700A1, “NOVEL APOPTOSIS SIGNAL-REGULATING KINASE 1 INHIBITORS” (MANKIND PHARMA LTD, priority 2019, published 2022) can be followed below.

pIC50: −log10 of the molar value. Like-named read-outs stand apart in the source and are kept apart here.

One may read the pIC50 as the negative decadic logarithm of the IC50, by convention in mol/L.

With `CNC(=O)C1CCN(c2ccc(N3CCN(c4cccc(-c5nncn5C(C)C)n4)C3=O)cc2)CC1` [Example 1082, 1-(4-(3-(6-(4-isopropyl-4H-1,2,4-triazol-3-yl)pyridin-2-yl)-2-oxoimidazolidin-1-yl)phenyl)-N-methylpiperidine-4-carboxamide], the negative-log IC50 (pIC50) runs as follows: under setting [1], more than 7.00; under setting [2], 7.82.
As for `CC(C)n1cnnc1-c1cccc(N2CCN(c3ccc(N4CCOCC4)cc3)C2=O)n1` [Example 1043, 1-(6-(4-isopropyl-4H-1,2,4-triazol-3-yl)pyridin-2-yl)-3-(4-morpholinophenyl)imidazolidin-2-one], the negative logarithm of the IC50 (pIC50) runs as follows: under setting [1], 6.85; under setting [2], 6.85.
Take `CC(C)n1cnnc1-c1cccc(N2CCN(c3ccc(N4CC(C#N)C4)cc3)C2=O)n1` [Example 1071, 1-(4-(3-(6-(4-isopropyl-4H-1,2,4-triazol-3-yl)pyridin-2-yl)-2-oxoimidazolidin-1-yl)phenyl)azetidine-3-carbonitrile]: the negative-log IC50 (pIC50) runs as follows: under setting [1], more than 7.00; under setting [2], 7.16.
Regarding `CC(C)n1cnnc1-c1cccc(N2CCN(c3ccc(N4CCC(C(=O)N(C)C)CC4)cc3)C2=O)n1` [Example 1097, 1-(4-(3-(6-(4-isopropyl-4H-1,2,4-triazol-3-yl)pyridin-2-yl)-2-oxoimidazolidin-1-yl)phenyl)-N,N-dimethylpiperidine-4-carboxamide], the pIC50 reads like this: under setting [1], more than 7.00; under setting [2], 6.99.
